Test [1] has as its system U-937. Briefly: Cytotoxicity against human U-937 cells by MTT assay. The format is functional, cell-based. In general terms: Tetrazolium assays rely on reduction of a dye to a coloured formazan, in cell work by metabolically active cells.
Test [2] deals with T1, Protein kinase C epsilon type (Homo sapiens) (UniProt Q02156).
T1 sequence (whole entry): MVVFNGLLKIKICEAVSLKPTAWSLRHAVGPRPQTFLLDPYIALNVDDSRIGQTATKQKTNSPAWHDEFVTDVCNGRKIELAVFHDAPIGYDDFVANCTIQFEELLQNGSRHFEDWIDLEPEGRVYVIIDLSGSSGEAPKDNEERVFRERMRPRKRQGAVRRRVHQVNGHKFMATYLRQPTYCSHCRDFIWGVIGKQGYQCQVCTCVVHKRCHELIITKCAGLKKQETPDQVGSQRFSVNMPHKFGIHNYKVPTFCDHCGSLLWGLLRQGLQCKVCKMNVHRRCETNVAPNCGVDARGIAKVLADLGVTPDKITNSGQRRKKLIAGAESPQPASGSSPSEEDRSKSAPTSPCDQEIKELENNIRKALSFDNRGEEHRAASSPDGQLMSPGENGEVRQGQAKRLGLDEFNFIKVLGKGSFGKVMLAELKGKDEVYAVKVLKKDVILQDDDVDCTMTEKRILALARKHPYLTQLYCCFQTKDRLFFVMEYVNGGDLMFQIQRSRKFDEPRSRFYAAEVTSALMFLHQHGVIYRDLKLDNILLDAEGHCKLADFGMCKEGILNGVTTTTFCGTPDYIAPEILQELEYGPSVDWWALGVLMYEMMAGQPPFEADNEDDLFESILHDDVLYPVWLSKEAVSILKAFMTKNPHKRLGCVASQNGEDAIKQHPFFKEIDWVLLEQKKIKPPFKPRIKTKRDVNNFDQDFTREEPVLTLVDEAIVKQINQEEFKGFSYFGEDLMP
The experiment in a line: Binding affinity to PKCepsilon (unknown origin).

The target in test [3] is Vascular endothelial growth factor receptor 3 (Homo sapiens) (UniProt P35916). Briefly: Binding affinity to VEGFR3 (unknown origin).
The target in test [4] is Tubulin (Homo sapiens) (UniProt P68371+Q9H4B7+P0DPH7+P68366+Q13509+Q71U36+P04350+Q3ZCM7+P07437+P68363+Q9BQE3+Q6PEY2+Q13885+Q9BVA1+Q9BUF5). Briefly: Inhibition of tubulin polymerization (unknown origin) at 10 uM. The format is protein-complex assay.

Activity calls are given as the source filed them. The calls are words filed in the database; no cut-off is given here.

Chain of Vascular endothelial growth factor receptor 3 (Homo sapiens) (P35916 whole entry): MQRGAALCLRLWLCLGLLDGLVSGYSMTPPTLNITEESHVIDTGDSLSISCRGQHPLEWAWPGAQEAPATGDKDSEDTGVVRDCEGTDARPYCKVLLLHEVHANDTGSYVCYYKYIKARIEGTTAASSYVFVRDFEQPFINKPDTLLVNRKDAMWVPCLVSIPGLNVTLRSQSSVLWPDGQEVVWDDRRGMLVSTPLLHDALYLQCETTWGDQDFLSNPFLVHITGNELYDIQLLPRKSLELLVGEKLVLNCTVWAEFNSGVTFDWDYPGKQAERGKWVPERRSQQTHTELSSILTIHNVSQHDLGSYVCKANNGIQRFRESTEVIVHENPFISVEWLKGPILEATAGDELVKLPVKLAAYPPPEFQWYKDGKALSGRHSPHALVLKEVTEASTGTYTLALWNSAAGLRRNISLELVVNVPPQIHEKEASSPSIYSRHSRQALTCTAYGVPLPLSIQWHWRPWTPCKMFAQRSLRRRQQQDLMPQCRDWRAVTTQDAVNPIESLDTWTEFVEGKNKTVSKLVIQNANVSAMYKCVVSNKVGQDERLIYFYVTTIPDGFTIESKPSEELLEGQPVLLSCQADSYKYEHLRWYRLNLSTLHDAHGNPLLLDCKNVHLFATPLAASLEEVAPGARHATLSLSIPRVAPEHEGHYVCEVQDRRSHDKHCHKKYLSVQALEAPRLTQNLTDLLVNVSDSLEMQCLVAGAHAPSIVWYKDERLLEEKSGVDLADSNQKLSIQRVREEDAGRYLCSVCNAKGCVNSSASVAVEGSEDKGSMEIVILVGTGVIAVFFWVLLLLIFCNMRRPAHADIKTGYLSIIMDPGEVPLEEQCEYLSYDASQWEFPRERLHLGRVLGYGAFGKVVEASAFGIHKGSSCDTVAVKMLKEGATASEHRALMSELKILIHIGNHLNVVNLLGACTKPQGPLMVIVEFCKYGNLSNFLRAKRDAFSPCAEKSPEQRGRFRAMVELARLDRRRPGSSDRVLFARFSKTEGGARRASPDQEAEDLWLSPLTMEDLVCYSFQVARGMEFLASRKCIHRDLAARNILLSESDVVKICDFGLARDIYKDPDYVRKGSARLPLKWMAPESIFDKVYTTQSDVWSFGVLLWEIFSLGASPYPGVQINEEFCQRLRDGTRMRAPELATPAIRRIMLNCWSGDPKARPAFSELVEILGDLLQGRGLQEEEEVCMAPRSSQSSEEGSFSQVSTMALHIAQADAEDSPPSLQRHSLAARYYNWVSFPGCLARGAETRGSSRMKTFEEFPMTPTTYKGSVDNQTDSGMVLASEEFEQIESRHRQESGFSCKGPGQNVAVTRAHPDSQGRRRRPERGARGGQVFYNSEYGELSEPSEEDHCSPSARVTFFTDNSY

For the molecule `CCCN1CC(c2ccc(OC)c(OC)c2)=C(c2cn(C)c3ccccc23)C1=O`, in test [1], the IC50 – broadly, the concentration at which inhibition is half-maximal – came out at 5 µM. On the same count and under the same terms, with `COc1ccc(C2=C(c3c[nH]c4ccccc34)C(=O)OC2)cc1OC` the figure was 9 µM; with `COc1ccc(C2=C(c3cn(C)c4ccccc34)C(=O)OC2)cc1OC`, 1 µM; with `CCCN1CC(c2ccc(OC)c(OC)c2)=C(c2cn(C(=O)OCC)c3ccccc23)C1=O`, 5 µM. `COc1ccc(C2=C(c3cn(C)c4ccccc34)C(=O)NC2)cc1OC`: the Activity in test [2] was 47%; in test [3] it was 50%.

Regarding `CCCN1CC(c2ccc(OC)c(OC)c2)=C(c2c[nH]c3ccccc23)C1=O`, the IC50 in test [1] came out at 35 µM.

`CCOC(=O)n1cc(C2=C(c3ccc(OC)c(OC)c3)COC2=O)c2ccccc21` gave an IC50 in test [1] of 0.3 µM. Also, in test [4], the inhibition result was “Active”.
